Experiments:
[1] = tested on: U87-luc orthotopic brain xenograft; test: Pharmacodynamic study in U87-luc orthotopic brain xenograft model, median survival; assay type: in vivo, BALB/c nude mice; details: Temozolomide 3 mg/kg IP Day 0, 7, 14, 21 and 28; survival time range in brackets
From the text: Pharmacodynamic study of the compound 17 of this disclosure and the combination of compound 17 of the disclosure and temozolomide in a U87-luc orthotopic brain xenograft model
Adult female BALB/c nude mice were used as test animals. A U87-luc orthotopic brain xenograft model was used to study the effect of representative compound 17 of this disclosure on the median survival of female BALB/c nude mice after intragastric administration.
Healthy adult female BALB/c nude mice, 8 mice/group, 6-8 weeks old, weighing 18-22 g, purchased from Shanghai SIPPR-BK Laboratory Animal Co., Ltd., Animal Production License No: 2008001658261; 2008001658263. • 7.2.3 Preparation of the test compounds
An appropriate amount of compound 17 was weighed, and added with 0.1% hydroxyethyl cellulose/0.5% TWEEN®80 as vehicle to 0.3125 mg/ml;
An appropriate amount of Temozolomide sample was weighed, and added with 0.1% CMC-Na+0.25% TWEEN®80 as vehicle to 0.3 mg/ml.
Adult female BALB/c nude mice were anesthetized by intraperitoneal injection of sodium pentobarbital at a dose of 80 mg/kg. To relieve pain, animals were injected subcutaneously with buprenorphine at the time points 30 minutes before operation and 6 hours after operation at a dose of 0.1 mg/kg. Animals were observed after anesthesia until all animals had awakened.
The anesthetized animals were properly fixed, the animals' head skin was sterilized with 70% ethanol, and an approximately 10 mm long incision was made on the right side of the midline from the forehead to the ear line. 3×10^5 U87-luc cells (3 μl, mixture of PBS and Matrigel at a ratio of 4:1) were inoculated at the right frontal lobe that is 2 mm away from the right side of the bregma and is 1 mm away from the front side of the coronal suture in each animal. The incision was sutured with a No. 6 suture, and sterilized with polyvinylpyrrolidone. Animals are kept warm until anabiosis. Six days after tumor cell transplantation, tumor animals were grouped by stratified randomization based on […] signal intensity values, and the average bioluminescence reached 2.812E+07 photons/sec when the groups were administered in groups. Different animal groups were administered at different doses for a total of 35 days.

CDK1/CyclinA2 = CDK1/CyclinA2 (Homo sapiens (Human), UniProt P06493); test: CDK kinase inhibitory activity, ADP-Glo Kinase Assay, CDK1/CyclinA2; assay type: biochemical
Method: (§1) Measurement of CDK kinase inhibitory activity of the compounds of this disclosure.
(§2) In vitro inhibitory effect of the compounds of the disclosure on CDK (CDK1, CDK4 and CDK6) kinase activity was tested by the following method.
(§3) 1.1 Instrument and Kit Information
(§4) 1.2 Experimental Preparation • 1.2.1 Preparation of Kinase Reaction Buffer I: The 5×Reaction Buffer A (Promega; V307A-C) provided in the kit was mixed and diluted with MILLI-Q® H2O and 0.1 M DTT (dithiothreitol) to give 4× kinase buffer, and then MILLI-Q® H2O was further added to finally formulate the solution into 1× Kinase buffer.
(§5) 1 μl of 10 mM standard substance stock solution was taken and added to 9 μl of kinase reaction buffer I and mixed well; then 90 μl of kinase reaction buffer I was added and mixed well; then 100 μl of kinase reaction buffer I was added and mixed well. The final concentration was 50 μM. • b. 40 μl of kinase reaction buffer II was added into B2 to B10 of a 96-well plate, and 50 μl of the above solution was added into B1; • c. 10 μl of solution was taken from well B1, added into B2, and mixed well; then 10 μl of the resulting solution was taken and added into B3, and dilution was carried out in sequence to B9, so as to obtain control solutions that are diluted by 5-fold sequentially. • (2) Preparation of test compound solution: • a. Test compound solutions at a certain concentration were taken, respectively, diluted with kinase reaction buffer I to a final concentration of 50 μM compound solution; • b. 40 μl of kinase reaction buffer II was added into H2 to H10 of the 96-well plate; and 50 μl of the above solution was added into H1; • c. 10 μl of solution was taken from well H1, added into H2, and mixed well; then 10 μl of the resulting solution was taken and added into H3, and dilution was carried out in sequence to H9, so as to obtain test compound solutions that are diluted by 5-fold sequentially. • 1.2.4 Preparation of a mixed solution of reaction substrate and ATP: • a. Preparation of ATP solution: • 200 μl of 0.1 mM ATP solution: 2 μl of 10 mM ATP was added to 198 μl of kinase reaction buffer I; • 300 μl of 50 μM ATP solution: 150 μl of kinase reaction buffer I was added to 150 μl of the above 0.1 mM ATP solution; • b. Preparation of 300 μl of reaction substrate solution: • 150 μl 1 μg/μl reaction substrate stock solution was added to 150 μl kinase reaction buffer I, and mixed well; • c. The above a/b solutions were mixed to obtain mixed solutions, respectively.
(§6) 1.3 Experimental process: • 1.3.1: 2 μl of compound solutions of various concentrations were taken, added to a 384-well plate, and centrifuged 3 minutes; • 1.3.2: 4 μl of kinase solution was added to each well, centrifuged at 5000 rpm and 18° C. for 10 minutes, and shaken on a plate shaker for 10 minutes; • 1.3.3: 4 μl of mixed solution of substrate and ATP was added to each well, centrifuged at 5000 rpm and 18° C. for 10 minutes, and shaken on a plate shaker at 37° C. for 90 minutes; • 1.3.4: The 384-well plate was taken out, and allowed to stand to room temperature; • 1.3.5: 10 μl of ADP-GLO™ reagent was added to each well, centrifuged at 5000 rpm and 18° C. for 18 minutes, and shaken on a plate shaker at 25° C. for 40 minutes, and then the reaction was stopped; • 1.3.6: 20 μl of kinase detection reagent was added to each well, centrifuged at 5000 rpm and 18° C. for 10 minutes, and shaken on a plate shaker at 25° C. for 30 minutes; and • 1.3.7: M1000pro MICROPLATE READER was used to read […] values.
(§7) The inhibition rate of each compound at each concentration point was calculated by the formula as follows and curve fitting was performed by GraphPad Prism 5 software to obtain the IC50 value.

CDK6/CyclinD3 = CDK6/CyclinD3 (Homo sapiens (Human), UniProt Q00534); test: CDK kinase inhibitory activity, ADP-Glo Kinase Assay, CDK6/CyclinD3; assay type: biochemical; details: for CDK1/CDK6 / CDK9/CDK6 / Pim-1/CDK6: ratio of IC50s; for CDK1/CDK6: selectivity for CDK6 over CDK1; for CDK9/CDK6: selectivity for CDK6 over CDK9; for Pim-1/CDK6: selectivity for CDK6 over Pim-1
Method: as §1, §2, §3, §4, §5, §6, §7

CDK9/CyclinD3 = CDK9/CyclinD3 (Homo sapiens (Human), UniProt P50750); test: Kinase inhibitory activity, ADP-Glo Kinase Assay, CDK9/CyclinD3; assay type: biochemical
Method: as §3, §4, §5, §6, §7

Pim-1 = Pim-1 (Homo sapiens (Human), UniProt P11309); test: Kinase inhibitory activity on Pim-1; assay type: biochemical
Method: as §4, §5, §6, §7

CDK4/CyclinE1 = CDK4/CyclinE1 (Homo sapiens, UniProt P11802); details: read-out: CDK4/CyclinE1 IC50
Method: as §1, §2, §3, §4
The final concentration was 50 μM. • b. 40 μl of kinase reaction buffer II was added into B2 to B10 of a 96-well plate, and 50 μl of the above solution was added into B1; • c. […]
as §6, §7

Structure (SMILES)	Medium survival [1]	IC50 (CDK1/CyclinA2)	IC50 (CDK6/CyclinD3)	CDK1/CDK6 (CDK6/CyclinD3)	CDK9/CDK6 (CDK6/CyclinD3)	Pim-1/CDK6 (CDK6/CyclinD3)	IC50 (CDK9/CyclinD3)	IC50 (Pim-1)	IC50 (CDK4/CyclinE1)
Cn1nnc2c(C(N)=O)ncn2c1=O [Temozolomide, reference compound]	47(38-83) days	–	–	–	–	–	–	–	–
CC1=Nc2c(F)cc(-c3nc(Nc4ccc(N5CCNCC5)cn4)ncc3F)cc2C12CCCC2 [Example 6, 5-fluoro-4-(7′-fluoro-2′-methylspiro[cyclopentane-1,3′-indol]-5′-yl)-N-(5-(piperazin-1-yl)pyridin-2-yl)pyrimidine-2-amino]	–	152 nM	6.45 nM	23.59	0.06	2.33	0.42 nM	15.1 nM	80.9 nM
CCC1(C)C(C)=Nc2c(F)cc(-c3nc(Nc4ccc(C5CCN(C)CC5)cn4)ncc3F)cc21 (centres unmarked) [Example 24, 4-(3-ethyl-7-fluoro-2,3-dimethyl-3H-indol-5-yl)-5-fluoro-N-(5-(1-methylpiperidin-4-yl)pyridin-2-yl)pyrimidine-2-amino]	–	76.4 nM	12.9 nM	5.94	0.13	5.66	1.74 nM	72.8 nM	–
CC1=Nc2c(F)cc(-c3nc(Nc4ccc(C5CCNCC5)cn4)ncc3F)cc2C12CCCC2 [Example 13, 5-Fluoro-4-(7′-fluoro-2′-methylspiro[cyclopentane-1,3′-indol]-5′-yl)-N-(5-(piperidin-4-yl)pyridin-2-yl)pyrimidine-2-amino]	–	327 nM	0.39 nM	838.46	6.56	5.69	2.56 nM	2.22 nM	–

— patent publication US11091476B2, “Protein kinase inhibitors, preparation method and medical use thereof” (Gan & Lee Pharmaceuticals, priority 2015, dated 2021)
